Results from patent US8716437B2 (priority 2007, dated 2014).

How the values were obtained:
Kv1.3 = Kv1.3 (Homo sapiens, UniProt P22001); assay: Two electrode voltage clamp, Xenopus oocytes, Kv1.3; assay type: cell-based; parameters: expressed in transfected cells; host or cells: Xenopus laevis oocytes (cRNA injection)
Excerpt: Thereafter, MK-1 was synthesized. […] The blocking of […] by MK-1 is represented by filled circles; the blocking of Kv1.2 by MK-1 is represented by filled diamonds; and the blocking of Kv1.1 by MK-1 is represented by filled triangles.
(§1) To examine the effect of mokatoxin-1 on activity of potassium ion channels, cDNA encoding Rattus Kv1.1 (NCBI accession number NM_173095), Rattus Kv1.2 (NM_012970), Homo Kv1.3 (NM_002232), or Mus BK (NM_010610) were subcloned into oocyte expression vectors based on PCR3.1 and pGEM. cRNA synthesis was performed with T7 polymerase and the mMessageMachine Kit (Ambion, Austin, Tex.) according to manufacturers instructions. cRNA concentrations were determined spectroscopically. For two electrode voltage clamp recordings oocytes were extracted from Xenopus laevis and defoliculated with Collagenase Type 2 (Worthington, Lakewood, N.J.). Oocytes were maintained in ND91 solution containing 2 mM KCl, 91 mM NaCl, 1 mM MgCl2, 1.8 mM CaCl2, and 5 mM HEPES, pH 7.5, supplemented with 1% Penicillin/Streptomycin (Cellgro, Hemdon, Va.) and 0.1% Gentamycin sulfate (Gibco, Grand Island, N.Y.)) at 16° C. Stage V and VI oocytes were injected with 8 pg to 4 ng cRNA, and currents recorded 1 to 4 days later.
(§2) For dose-response measurements of toxin block of Kv1.1, Kv1,2, or Kv1.3 peak currents were recorded during a 500 ms step to 0 mV from a holding voltage of −100 mV, followed by a 200 ms step to −135 mV every 30 s. To determine the kinetics of toxin block oocytes were held at −100 mV and stepped to the test voltage of 0 mV for 100 ms followed by a 200 ms duration step to −135 mV every 2 s. BK currents were recorded during a 50 ms step to +60 mV from a holding voltage of −80 mV, followed by a 40 ms step to −100 mV every 3 s. The perfusion solution contained 2 mM KCl, 96 mM NaCl, 1 mM MgCl2, 1.8 mM CaCl2, 5 mM HEPES, pH 7.5 and 0.1% fatty acid ultra-free BSA fraction V (Roche Diagnostics Corporation, Indianapolis, Ind.). Data acquisition and processing was performed with an oocyte clamp OC-725B (Warner Instruments Corporation, Hamden, Conn.), pCLAMP (Axon, Sunnyvale, Calif.), IGOR Pro (WaveMetrics, Lake Oswego, Oreg.), and Origin6.1 (OriginLab Corporation, Northampton, Mass.) softwares. The equilibrium dissociation rates (KD) for block of Kv1.1, Kv1.2, and Kv1.3 by mokatoxin-1 were determined by fitting the dose-response data and kon and koff were calculated as described by Goldstein and Miller, 1993 (Biophys J. 1993 65 (4):1613-1619).

BK = molecular target: T1, BK (Mus musculus, UniProt Q08460); assay: Two electrode voltage clamp, Xenopus oocytes, BK; assay type: cell-based
T1 construct: expressed in transfected cells; host or cells: Xenopus laevis oocytes (cRNA injection)
T1 sequence (Q08460 whole entry): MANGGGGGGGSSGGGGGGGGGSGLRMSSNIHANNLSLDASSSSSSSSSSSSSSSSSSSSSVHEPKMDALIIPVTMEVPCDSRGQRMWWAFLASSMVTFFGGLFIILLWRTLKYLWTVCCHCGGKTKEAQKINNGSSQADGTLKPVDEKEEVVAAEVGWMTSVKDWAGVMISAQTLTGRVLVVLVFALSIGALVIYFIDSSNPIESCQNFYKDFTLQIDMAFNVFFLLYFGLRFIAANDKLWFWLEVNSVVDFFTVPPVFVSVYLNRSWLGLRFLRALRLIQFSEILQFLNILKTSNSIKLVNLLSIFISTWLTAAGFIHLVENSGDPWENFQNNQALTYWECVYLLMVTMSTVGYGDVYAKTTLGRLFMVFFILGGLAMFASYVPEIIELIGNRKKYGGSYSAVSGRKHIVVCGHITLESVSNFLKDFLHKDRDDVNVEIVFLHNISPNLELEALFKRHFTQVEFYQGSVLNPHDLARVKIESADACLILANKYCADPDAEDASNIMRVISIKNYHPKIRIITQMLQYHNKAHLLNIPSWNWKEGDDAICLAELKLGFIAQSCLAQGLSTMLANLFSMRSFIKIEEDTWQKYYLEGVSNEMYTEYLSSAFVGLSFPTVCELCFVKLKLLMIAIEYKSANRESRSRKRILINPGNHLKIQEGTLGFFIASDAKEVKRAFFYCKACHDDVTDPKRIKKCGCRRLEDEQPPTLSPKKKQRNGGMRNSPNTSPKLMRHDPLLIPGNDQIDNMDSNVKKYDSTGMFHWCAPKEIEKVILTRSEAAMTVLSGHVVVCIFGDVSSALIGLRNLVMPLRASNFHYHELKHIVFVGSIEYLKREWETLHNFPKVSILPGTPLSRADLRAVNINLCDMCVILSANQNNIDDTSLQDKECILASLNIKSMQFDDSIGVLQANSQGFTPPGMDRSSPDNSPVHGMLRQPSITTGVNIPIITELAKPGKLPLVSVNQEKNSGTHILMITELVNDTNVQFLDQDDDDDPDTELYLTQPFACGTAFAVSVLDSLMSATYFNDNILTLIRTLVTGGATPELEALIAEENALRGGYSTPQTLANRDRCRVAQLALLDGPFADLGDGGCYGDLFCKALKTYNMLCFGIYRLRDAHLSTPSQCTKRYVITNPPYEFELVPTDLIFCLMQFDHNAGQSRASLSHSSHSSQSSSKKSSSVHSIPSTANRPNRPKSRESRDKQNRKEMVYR
Description: as §1, §2

[1] = tested on: antiserum to sarafotoxin s6b (anti-S6b); assay: Phage panning on immobilized antiserum to sarafotoxin s6b; assay type: binding; details: mixture of five ligands, one round of panning
Excerpt: A mixture of five ligands: (1) kaliotoxin-1; (2) sarafotoxin s6b; (3) Dendroaspis natriuretic peptide (DNP); (4) fasciculin-2; and (5) camel antibody (CVHH); were mixed and panned on purified receptors (KcsA-Kv1.3). The control was immobilized antiserum to sarafotoxin s6b (anti-S6b). Input and output ligands were verified by genotyping. In this system, shown in Table 6, a 3.6-fold enrichment is seen after one-round of panning.

KcsA-1.3 = assay: Phage ELISA on immobilized KcsA-1.3; assay type: binding; details: in words
Description: Panning was performed, in triplicate, on surfaces without a coating (none), and on immobilized KcsA-Kv1.3 receptors (KcsA-Kv1.3), wild-type KcsA receptors (KcsA-WT), and antiserum to sarafotoxin S6b (anti-S6b). The input ligands per well are 10^9, 10^8, 10^7. The ligands included: sarafotoxin S6b (upper panel FIG. 4), kaliotoxin-1 (KTX, middle row FIG. 4), no ligand helper phages (bottom row FIG. 4).
For each binding determination, 3 wells in a NUNC-Immuno MaxiSorp 96-Well plates were coated overnight at 4° C. with 1 ug of KcsA-1.3 or KcsA in 50 ul of 100 mM NaHCO3, 1 mM DDM, pH 9, then washed once with Tris-HC150 mM, NaCl-150 mM pH7.5 containing 0.1% Tween 20, 1 mM DDM (TBST). Wells were then blocked at room temperature with 200 ul of Tris 50 mM NaCl 150 mM pH 7.5, 1 mM DDM, (TBS) containing 0.5% BSA, then washed once with TBST. For each well, 108-1010 phages were added in 50 ul of TBS containing 0.5% BSA and incubated on a rotary shaker at room temperature for 2 hrs. Following five washes with TBST, 50 ul of anti-phage antibody-peroxidase conjugated TBST with 0.5% BSA was added and incubated on a rotary shaker for 2 hours at room temperature, then washed 5 times with TBST and twice with TBS. Fifty (50) ul of 1 step turbo-TMB-ELISA was added and the reaction is stopped by 50 μl of 2M H2SO4 and the absorbancy was read at 450 nm.

Chain of Kv1.3 (P22001 whole entry): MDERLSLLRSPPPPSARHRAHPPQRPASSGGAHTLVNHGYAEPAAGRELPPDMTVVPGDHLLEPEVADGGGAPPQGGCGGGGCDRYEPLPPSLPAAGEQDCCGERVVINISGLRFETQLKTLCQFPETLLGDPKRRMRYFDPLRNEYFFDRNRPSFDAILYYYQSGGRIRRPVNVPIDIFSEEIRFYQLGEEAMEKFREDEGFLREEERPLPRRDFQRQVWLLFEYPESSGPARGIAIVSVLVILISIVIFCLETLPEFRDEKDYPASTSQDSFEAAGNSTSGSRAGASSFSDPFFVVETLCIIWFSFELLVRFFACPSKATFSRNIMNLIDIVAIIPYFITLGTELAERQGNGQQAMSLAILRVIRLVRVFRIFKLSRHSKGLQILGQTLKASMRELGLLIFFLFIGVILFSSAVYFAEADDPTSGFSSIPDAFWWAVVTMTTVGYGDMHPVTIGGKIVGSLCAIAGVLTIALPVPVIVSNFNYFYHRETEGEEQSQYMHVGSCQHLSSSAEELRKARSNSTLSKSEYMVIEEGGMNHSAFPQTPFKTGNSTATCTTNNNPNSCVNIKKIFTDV

With `CC[C@H](C)[C@H](NC(=O)[C@H](CCC(=O)O)NC(=O)[C@@H](NC(=O)CN)C(C)C)C(=O)N[C@@H](CC(N)=O)C(=O)N[C@H](C(=O)N[C@@H](CCCCN)C(=O)N[C@H]1CSSC[C@@H]2NC(=O)[C@H](CCCCN)NC(=O)CNC(=O)[C@H](Cc3ccccc3)NC(=O)[C@H](CCCNC(=N)N)NC(=O)[C@H](CCSC)NC(=O)CNC(=O)[C@H](C)NC(=O)[C@H](CC(=O)O)NC(=O)[C@H](CCCCN)NC(=O)[C@@H]3CSSC[C@@H](C(=O)N[C@H](C(=O)N4CCC[C@H]4C(=O)N[C@@H](CCCCN)C(=O)O)[C@@H](C)O)NC(=O)[C@H](Cc4c[nH]cn4)NC(=O)[C@H](CSSC[C@H](NC(=O)[C@H](CCC(N)=O)NC(=O)[C@@H]4CCCN4C(=O)[C@H](CO)NC(=O)CNC(=O)[C@H](CO)NC1=O)C(=O)N[C@@H](CC(C)C)C(=O)N[C@@H](CCCCN)C(=O)N1CCC[C@H]1C(=O)N3)NC(=O)[C@H](CCCCN)NC(=O)[C@H](CCCNC(=N)N)NC(=O)[C@H](CC(N)=O)NC(=O)[C@H](CCSC)NC2=O)C(C)C` [KTX, kaliotoxin-1] the IC50 (Kv1.3) was 0.5 nM, the “Koff [s]^−1” value (Kv1.3; hKv1.3) was 0.0070 ± 0.0009 [s]^−1 and the “Kon [M · s]^−1” value (Kv1.3; hKv1.3) was 8 · 10^8 ± 1 · 10^8 [M · s]^−1. The IC50 (BK) was ~5 nM, the “Koff [s]^−1” value (BK; mBK) was 0.0211 ± 0.0008 [s]^−1 and the “Kon [M · s]^−1” value (BK; mBK) was 21 · 10^3 ± 4 · 10^3 [M · s]^−1. For the same molecule, the “Output (% Ligands) Anti-S6b (n = 20)” value [1] was 0% and the “binding of phage to KcsA-1.3 (KcsA-Kv1.3)” value (KcsA-1.3) was “specific binding”.
